For 4 compounds, EC50 and Emax results are on record in patent publication US20230265151A1, “GIP/GLP1 CO-AGONIST COMPOUNDS” (priority 2020, published 2023).

Read-outs that look alike come from different tables or passages of the source. *1 amine or outer side, *2 acyl side, *3 side chain or, on linkers, in order; H or OH if unused. Where a SMILES comes first, the peptide text is derived from it. Side-chain parts run from the residue outwards. [ ]: non-standard residue; d: D form. The star is where a group is joined. αMePhe(2-F) = C[C@](N)(Cc1ccccc1F)C(=O)O; γGlu = O=C(O)[C@H](CCC(=O)[*:2])N[*:1]; αMeY = C[C@](N)(Cc1ccc(O)cc1)C(=O)O; 4Pal = N[C@@H](Cc1ccncc1)C(=O)O; αMeL = CC(C)C[C@](C)(N)C(=O)O; Lauroyl = CCCCCCCCCCCC(=O)*; Orn = NCCC[C@H](N)C(=O)O; AEEA = NCCOCCOCC(=O)O; Aib = CC(C)(N)C(=O)O Where only a bound is given, the exact number is not on record here.

Common to all, as to format: cell-based
One assay deals with T1, hGIPR (Homo sapiens, UniProt P48546).
T1 construct: expressed in transfected cells
T1 sequence (P48546 22-466): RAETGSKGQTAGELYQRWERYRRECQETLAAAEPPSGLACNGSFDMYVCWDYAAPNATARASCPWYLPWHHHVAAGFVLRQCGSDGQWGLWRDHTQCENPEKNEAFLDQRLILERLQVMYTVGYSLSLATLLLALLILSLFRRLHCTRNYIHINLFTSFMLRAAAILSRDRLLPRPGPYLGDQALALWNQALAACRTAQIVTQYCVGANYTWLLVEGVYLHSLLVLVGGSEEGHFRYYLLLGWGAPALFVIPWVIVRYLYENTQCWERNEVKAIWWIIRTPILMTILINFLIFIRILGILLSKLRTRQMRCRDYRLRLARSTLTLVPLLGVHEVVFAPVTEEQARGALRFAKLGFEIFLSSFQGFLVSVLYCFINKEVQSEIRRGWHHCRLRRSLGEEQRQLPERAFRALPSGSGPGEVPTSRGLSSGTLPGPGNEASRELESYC
Nature of the assay: Functional cAMP formation (HTRF) in HEK-293 clonal cells expressing hGIPR, 0.1% bovine casein, without or with 1.0% human serum albumin. The following applies: for EC50: 37° C., geometric mean; for Emax: percent of maximal response to GIP(1-42)NH2. Summed up:
(§1)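 Readings of the HTRF 665/620 nm ratio, which falls as cAMP rises, were converted to nM cAMP using a standard curve after 30 min peptide exposure at 37° C.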
Background: Changes in cAMP serve as a functional read-out for many G protein-coupled receptors.

The target in another assay is hGLP-1R (Homo sapiens, UniProt P43220). Nature of the assay: Functional cAMP formation (HTRF) in HEK-293 clonal cells expressing hGLP-1R, 0.1% bovine casein, without or with 1.0% human serum albumin. The following applies: for Emax: percent of maximal response to GLP-1(7-36)NH2; for EC50: geometric mean. More on the design: expressed in transfected cells. Summed up: as §1
Sequence of hGLP-1R (P43220 24-463): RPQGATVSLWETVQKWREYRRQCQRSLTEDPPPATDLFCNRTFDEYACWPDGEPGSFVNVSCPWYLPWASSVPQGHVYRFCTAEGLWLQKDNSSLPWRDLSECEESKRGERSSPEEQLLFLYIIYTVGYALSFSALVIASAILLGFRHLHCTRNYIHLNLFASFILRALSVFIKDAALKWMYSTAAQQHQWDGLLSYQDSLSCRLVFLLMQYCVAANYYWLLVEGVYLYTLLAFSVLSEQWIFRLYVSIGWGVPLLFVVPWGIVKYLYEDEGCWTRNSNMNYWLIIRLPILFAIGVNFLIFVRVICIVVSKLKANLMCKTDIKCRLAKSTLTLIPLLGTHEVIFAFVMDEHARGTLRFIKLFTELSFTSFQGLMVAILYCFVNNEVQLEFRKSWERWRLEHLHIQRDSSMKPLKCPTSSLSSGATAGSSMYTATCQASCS

The next assay concerns the target T2, hGCGR (Homo sapiens, UniProt P47871).
T2 construct: expressed in transfected cells
Nature of the assay: Functional cAMP formation (HTRF) in HEK-293 clonal cells expressing hGCGR, 0.1% bovine casein, without or with 1.0% human serum albumin. The following applies: 37° C., geometric mean. Put shortly:
as §1

Setting [1] is: hGIPR EC50, nM (SEM, n), cAMP, 0.1% bovine casein (no human serum albumin).
Setting [2] is: HEK293, read-out: hGLP-1R Emax, % ± SEM, 0.1% bovine casein and 1.0% human serum albumin, 37° C.
Setting [3] is: hGLP-1R EC50, nM (SEM, n), cAMP, 37° C., 0.1% bovine casein (no human serum albumin).
Where [4] appears, read: hGCGR EC50, nM (SEM, n), 0.1% bovine casein and 1.0% human serum albumin.
Where [5] appears, read: hGCGR EC50, nM (SEM, n), cAMP, 0.1% bovine casein (no human serum albumin).
[6] abbreviates: 0.1% bovine casein and 1.0% human serum albumin, read-out: hGIPR EC50, nM (SEM, n).
[7] abbreviates: cAMP, 0.1% bovine casein (no human serum albumin), read-out: hGIPR EC50, nM (SEM, n).
[8] abbreviates: HEK293, cAMP, 37° C., 0.1% bovine casein, arithmetic mean, read-out: hGLP-1R Emax, % ± SEM.
[9] abbreviates: cAMP, 37° C., 0.1% bovine casein (no human serum albumin), read-out: hGLP-1R EC50, nM (SEM, n).
The mark [10] stands for this setting: 0.1% bovine casein and 1.0% human serum albumin, read-out: hGCGR EC50, nM (SEM, n).
[11] abbreviates: cAMP, 0.1% bovine casein (no human serum albumin), read-out: hGCGR EC50, nM (SEM, n).

T2 sequence (P47871 26-477): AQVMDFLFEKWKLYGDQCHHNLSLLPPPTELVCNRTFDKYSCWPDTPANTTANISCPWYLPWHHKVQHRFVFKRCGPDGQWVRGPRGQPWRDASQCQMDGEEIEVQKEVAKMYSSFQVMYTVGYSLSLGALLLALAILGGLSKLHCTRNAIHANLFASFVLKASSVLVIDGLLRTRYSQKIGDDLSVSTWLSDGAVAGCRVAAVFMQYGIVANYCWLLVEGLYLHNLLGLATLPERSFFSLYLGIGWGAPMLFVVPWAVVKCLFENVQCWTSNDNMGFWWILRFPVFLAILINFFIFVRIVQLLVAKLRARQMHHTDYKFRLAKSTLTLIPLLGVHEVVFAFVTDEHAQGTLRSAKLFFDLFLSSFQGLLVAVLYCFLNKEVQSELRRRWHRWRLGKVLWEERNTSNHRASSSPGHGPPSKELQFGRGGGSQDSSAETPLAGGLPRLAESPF

For orientation: EC50 means the concentration giving half of the maximal effect. By Emax is commonly meant the greatest response seen or fitted, relative to the assay's reference. Regarding `CC[C@H](C)[C@H](NC(=O)[C@H](CCCN)NC(=O)[C@H](CC(=O)O)NC(=O)[C@H](CC(C)C)NC(=O)[C@](C)(CC(C)C)NC(=O)[C@@H](NC(=O)C(C)(C)NC(=O)[C@@H](NC(=O)[C@H](CC(=O)O)NC(=O)[C@H](CO)NC(=O)[C@@H](NC(=O)[C@](C)(Cc1ccccc1F)NC(=O)[C@@H](NC(=O)CNC(=O)[C@H](CCC(=O)O)NC(=O)C(C)(C)NC(=O)[C@@H](N)Cc1ccc(O)cc1)[C@@H](C)O)[C@@H](C)O)C(C)C)[C@@H](C)CC)C(=O)N[C@@H](C)C(=O)N[C@@H](CCC(N)=O)C(=O)NC(C)(C)C(=O)N[C@@H](CCC(=O)O)C(=O)N[C@@H](Cc1ccccc1)C(=O)N[C@H](C(=O)N[C@@H](CCCCNC(=O)COCCOCCNC(=O)COCCOCCNC(=O)CC[C@H](NC(=O)CCCCCCCCCCOc1ccc(C(=O)O)cc1)C(=O)O)C(=O)N[C@@](C)(Cc1ccc(O)cc1)C(=O)N[C@@H](CC(C)C)C(=O)N[C@H](C(=O)N[C@@H](CCCCNC(=O)COCCOCCNC(=O)COCCOCCNC(=O)CC[C@H](NC(=O)CCCCCCCCCCOc1ccc(C(=O)O)cc1)C(=O)O)C(=O)NCC(=O)NCC(=O)N1CCC[C@H]1C(=O)N[C@@H](CO)C(=O)N[C@@H](CO)C(=O)NCC(=O)N[C@@H](C)C(=O)N1CCC[C@H]1C(=O)N1CCC[C@H]1C(=O)N1CCC[C@H]1C(=O)N[C@@H](CO)C(N)=O)[C@@H](C)CC)[C@@H](C)CC` [Example 313], the EC50 on hGIPR (setting [1]) is 0.00781 nM; on hGLP-1R (setting [3]), 1.13 nM; at hGCGR (setting [4]), greater than 9950 nM; at hGCGR (setting [5]), greater than 9950 nM. Further, the maximal response (Emax) on hGLP-1R (setting [2]) was 95%.

Regarding `CC[C@H](C)[C@H](NC(=O)[C@H](CCCN)NC(=O)[C@H](CC(=O)O)NC(=O)[C@H](CC(C)C)NC(=O)[C@](C)(CC(C)C)NC(=O)[C@@H](NC(=O)C(C)(C)NC(=O)[C@H](Cc1ccc(O)cc1)NC(=O)[C@H](CC(=O)O)NC(=O)[C@H](CO)NC(=O)[C@@H](NC(=O)[C@](C)(Cc1ccccc1F)NC(=O)[C@@H](NC(=O)CNC(=O)[C@H](CCC(=O)O)NC(=O)C(C)(C)NC(=O)[C@@H](N)Cc1ccc(O)cc1)[C@@H](C)O)[C@@H](C)O)[C@@H](C)CC)C(=O)N[C@@H](C)C(=O)N[C@@H](CCC(N)=O)C(=O)NC(C)(C)C(=O)N[C@@H](CCCN)C(=O)N[C@@H](Cc1ccccc1)C(=O)N[C@H](C(=O)N[C@@H](CCCCNC(=O)COCCOCCNC(=O)COCCOCCNC(=O)CC[C@H](NC(=O)CCCCCCCCCCCCC(=O)O)C(=O)O)C(=O)N[C@@](C)(Cc1ccc(O)cc1)C(=O)N[C@@H](CC(C)C)C(=O)N[C@H](C(=O)N[C@@H](CCCCNC(=O)COCCOCCNC(=O)COCCOCCNC(=O)CC[C@H](NC(=O)CCCCCCCCCCCCC(=O)O)C(=O)O)C(=O)NCC(=O)NCC(=O)N1CCC[C@H]1C(=O)N[C@@H](CO)C(=O)N[C@@H](CO)C(=O)NCC(=O)N[C@@H](C)C(=O)N1CCC[C@H]1C(=O)N1CCC[C@H]1C(=O)N1CCC[C@H]1C(=O)N[C@@H](CO)C(N)=O)[C@@H](C)CC)[C@@H](C)CC` [Example 316], the EC50 at hGIPR (setting [6]) was 1.11 nM; on hGIPR (setting [7]) it was 0.0316 nM; on hGLP-1R (setting [9]), 0.571 nM; on hGCGR (setting [10]), greater than 9950 nM; at hGCGR (setting [11]), greater than 9950 nM. The Emax on hGLP-1R (HEK293, 0.1% bovine casein and 1.0% human serum albumin, 37° C., read-out: hGLP-1R Emax, % ± SEM) turned out to be 113%; on hGLP-1R (setting [8]) it was 109%.

Turning to `CCCCCCCCCCCC(=O)N[C@@H](CCC(=O)NCCOCCOCC(=O)NCCOCCOCC(=O)NCCCC[C@H](NC(=O)[C@H](CCCN)NC(=O)[C@H](CC(=O)O)NC(=O)[C@H](CC(C)C)NC(=O)[C@](C)(CC(C)C)NC(=O)[C@@H](NC(=O)[C@H](CO)NC(=O)[C@H](Cc1ccncc1)NC(=O)[C@H](CC(=O)O)NC(=O)[C@H](CO)NC(=O)[C@@H](NC(=O)[C@](C)(Cc1ccccc1F)NC(=O)[C@@H](NC(=O)CNC(=O)[C@H](CCC(=O)O)NC(=O)C(C)(C)NC(=O)[C@@H](N)Cc1ccc(O)cc1)[C@@H](C)O)[C@@H](C)O)[C@@H](C)CC)C(=O)N[C@@H](C)C(=O)N[C@@H](CCC(N)=O)C(=O)NC(C)(C)C(=O)N[C@@H](CCCCNC(=O)COCCOCCNC(=O)COCCOCCNC(=O)CC[C@H](NC(=O)CCCCCCCCCCC)C(=O)O)C(=O)N[C@@H](Cc1ccccc1)C(=O)N[C@H](C(=O)N[C@H](CCC(=O)O)C(=O)N[C@@](C)(Cc1ccc(O)cc1)C(=O)N[C@@H](CC(C)C)C(=O)N[C@H](C(=O)N[C@@H](CCC(=O)O)C(=O)NCC(=O)NCC(N)=O)[C@@H](C)CC)[C@@H](C)CC)C(=O)O` [Example 295] (H-Y[Aib]EGT[αMePhe(2-F)]TSD[4Pal]SI[αMeL]LD[Orn]K([AEEA-AEEA-γGlu-Lauroyl])AQ[Aib]K([AEEA-AEEA-γGlu-Lauroyl])FI[dE][αMeY]LIEGG-NH2; N-terminus assumed), the EC50 is 1.09 nM at hGIPR (setting [6]); 0.0141 nM at hGIPR (setting [7]); 10.4 nM on hGLP-1R (0.1% bovine casein and 1.0% human serum albumin, 37° C., read-out: hGLP-1R EC50, nM (SEM, n)); 0.167 nM on hGLP-1R (setting [9]); greater than 9950 nM at hGCGR (setting [10]); greater than 9950 nM on hGCGR (setting [11]). In addition, the Emax at hGLP-1R (setting [8]) worked out at 109%.

As to `CC[C@H](C)[C@H](NC(=O)[C@H](CCCN)NC(=O)[C@H](CC(=O)O)NC(=O)[C@H](CC(C)C)NC(=O)[C@](C)(CC(C)C)NC(=O)[C@@H](NC(=O)C(C)(C)NC(=O)[C@H](Cc1ccc(O)cc1)NC(=O)[C@H](CC(=O)O)NC(=O)[C@H](CO)NC(=O)[C@@H](NC(=O)[C@](C)(Cc1ccccc1F)NC(=O)[C@@H](NC(=O)CNC(=O)[C@H](CCC(=O)O)NC(=O)C(C)(C)NC(=O)[C@@H](N)Cc1ccc(O)cc1)[C@@H](C)O)[C@@H](C)O)[C@@H](C)CC)C(=O)N[C@@H](C)C(=O)N[C@@H](CCC(N)=O)C(=O)NC(C)(C)C(=O)N[C@@H](CCC(=O)O)C(=O)N[C@@H](Cc1ccccc1)C(=O)N[C@H](C(=O)N[C@@H](CCCCNC(=O)COCCOCCNC(=O)COCCOCCNC(=O)CC[C@H](NC(=O)CCCCCCCCCCOc1ccc(C(=O)O)cc1)C(=O)O)C(=O)N[C@@](C)(Cc1ccc(O)cc1)C(=O)N[C@@H](CC(C)C)C(=O)N[C@H](C(=O)N[C@@H](CCCCNC(=O)COCCOCCNC(=O)COCCOCCNC(=O)CC[C@H](NC(=O)CCCCCCCCCCOc1ccc(C(=O)O)cc1)C(=O)O)C(=O)NCC(=O)NCC(=O)N1CCC[C@H]1C(=O)N[C@@H](CO)C(=O)N[C@@H](CO)C(=O)NCC(=O)N[C@@H](C)C(=O)N1CCC[C@H]1C(=O)N1CCC[C@H]1C(=O)N1CCC[C@H]1C(=O)N[C@@H](CO)C(N)=O)[C@@H](C)CC)[C@@H](C)CC` [Example 312], the maximal effect (Emax) at hGIPR (HEK293, read-out: hGIPR Emax, % ± SEM, 0.1% bovine casein and 1.0% human serum albumin, 37° C.) turned out to be 89.5%; at hGIPR (HEK293, read-out: hGIPR Emax, % ± SEM, cAMP, 37° C., 0.1% bovine casein, arithmetic mean), 105%; at hGLP-1R (setting [2]) it was 112%. For the same compound, the EC50 on hGIPR (setting [1]) was 0.00757 nM; on hGLP-1R (setting [3]), 0.663 nM; at hGCGR (setting [4]), greater than 9950 nM; at hGCGR (setting [5]), greater than 9950 nM.
